Data on 5 molecules can be found in patent US7226746B1, “Method for screening for anti-amyloidogenic properties and method for treatment of neurodegenerative disease” (The Regents of the University of California, priority 1998, dated 2007).

For data set [1], the target named is T1, NACP/α-synuclein (Homo sapiens, UniProt P37840). Kind of data set: Iron-catalyzed oxidative reaction (metal ion plus hydrogen peroxide) aggregation of NACP/α-synuclein, immunoblotting. Format: biochemical. Also on record: which encodes full length NACP/α-synuclein 140; 6xHis (cleaved yes); made in house; host or cells: E. coli DH5α. How it is done: (§1) Prior to experimentation, each of the recombinant proteins need to be desalted by way of passage through PD 10 columns (Pharmacia, Piscataway, N.J.) in water and then adjusted to a final concentration of 5 μM. NACP/α-synuclein protein (1 μl) is incubated in a total volume of 20 μl of buffer containing 20 mM Tris-HCl, pH 7.4. To perform the immuno-blotting analysis, each sample is resolved by SDS-PAGE (15%) and blotted onto nitrocellulose membrane (Schleicher & Schuell, Keene, N.H.). The blotted membrane is blocked with Tris-Buffered saline (TBS; 20 mM Tris-HCl, pH 7.5 and 150 mM NaCl) containing 3% BSA, followed by incubation with anti-C-terminal rabbit polyclonal antibody (1:1000) in TBS containing 1% BSA. The blocked membrane is then incubated with peroxidase-labeled anti-rabbit IgG (Amersham) (1:1000) and visualized using the ECL immuno-blotting system (Amersham, Cleveland, Ohio), the use of which is well known to those in the art.
It was hypothesized that aggregation of NACP/α-synuclein might be linked to the iron-catalyzed oxidative reactions, represented in FIG. 2a, illustrating the hypothesis for the association of NACP/α-synuclein aggregation with iron-catalyzed oxidative reaction (Harber-Weiss reaction). In order to determine if an iron-catalyzed oxidative reaction promotes aggregation of NACP/α-synuclein, the human recombinant form of this molecule was incubated with ferrous ion (100 μM) and hydrogen peroxide. […] Ferrous ion was not included in lanes 8–10. The position of molecular weight markers (kD) are indicated on left). […] Other transition metals were also examined for their effect on NACP/α-synuclein aggregation.
In general terms: In western blotting, separated proteins are transferred to a membrane and probed.

A short description of data set [2]: Aggregation assay under high temperature conditions, SDS-PAGE analysis. In kind it is physicochemical, human. The note with it: 20 μM protein, 100 mM sodium acetate, pH 6.9, 65° C. How it is done:
(§2) In order to test the susceptibility of the newly constructed β-synuclein mutants to aggregation, an aggregation assay can be performed. To do this, 10–20 μM of each of the mutant proteins are incubated in a total volume of 20 μl with a final concentration of 100 mM sodium acetate, pH 6.9. Aggregation can be induced under a variety of conditions, for instance, low pH and high temperature. SDS-PAGE analysis/immunoblotting or Thioflavine-S staining provides means for evaluating the reacted samples, the methods of which are described above and well known to those in the art.
Recombinant proteins were produced using a standard E. coli system and high purity products were generated using SDS-PAGE analysis, seen as FIG. 4.
After 8 hours incubation, the bands corresponding to possible dimers became visible and, after 20 hours incubation, bands corresponding to dimers and higher smears in both the separating and stacking portions of the gels was observed.

Data set [3] can be described thus: Thioflavine-S staining of aggregates formed at pH 6.9, 65 C. The following applies: pH 6.9, 65 C conditions. In kind it is physicochemical, human. As for the experimental part: In order to determine whether the aggregates resulting from aggregation reactions of PROEX-1-β-synuclein 61 and PROEX-1-β-synuclein δ2 display amyloid-like characteristics, 10 μl aliquots of the protein preparations are obtained using the above-described procedures are pipetted onto glass slides and stained with Thioflavine-S. The results are visually analyzed using a confocal microscope, the method of which is well known to those in the art.

Data set [4] can be described thus: Thioflavine-S staining of ferric ion-induced in vitro aggregates. Format: physicochemical, human. How it is done:
In order to determine if iron-induced NACP/α-synuclein aggregates display amyloid-like characteristics, Thioflavine-S staining is performed.
In order to determine whether the ferric-ion induced in vitro aggregates of NACP/α-synuclein display amyloid-like characteristics, Thioflavine-S staining experiments were performed.

Data set [5] in a line: Specificity of ferric ion-induced aggregation: recombinant synuclein proteins treated with ferric ion, immunoblot. In kind it is physicochemical, human. The following applies: 100 μM ferric ion. How it is done: (§3) The cells are harvested and re-suspended in 50 mM Tris-HCl, pH 8.5, containing protease inhibitors. Following sonication and centrifugation of the re-suspension, the supernatant is applied to a Ni-NTA column and eluted with 20 mM Tris-HCl, pH 8.5, containing 100 mM KCl, 100 mM imidazole, […] v/v glycerol and 10 mM β-mercaptoethanol. The eluted fusion protein is dialyzed against 50 mM Tris-HCl, pH 8.5, cleaved with recombinant TEV protease and again applied to a Ni-NTA column. The recombinant NACP/α-synuclein is isolated in the flow through fractions, pooled and stored at −20° C. until use.
as §1, with “The blocked membrane is then incubated with peroxidase-labeled anti-rabbit IgG (Amersham) (1:1000) and visualized using the ECL immuno-blotting system (Amersham, Cleveland, Ohio), the use of which is well known to those in the art.” left out

In data set [6] the target is T2, human recombinant NACP/α-synuclein 140 (Homo sapiens, UniProt P37840).
T2 construct: which encodes full length NACP/α-synuclein 140; 6xHis (cleaved yes); made in house; host or cells: E. coli DH5α
The data set is described as follows: Ferric ion-induced aggregation of NACP/α-synuclein 140, immunoblotting analysis. Format: biochemical. The following applies: 4 hour incubation, pH 7.4, 37° C.; 0-1 mM ferric ion, concentration dependent. How it is done:
as §3
as §1, with “The blocked membrane is then incubated with peroxidase-labeled anti-rabbit IgG (Amersham) (1:1000) and visualized using the ECL immuno-blotting system (Amersham, Cleveland, Ohio), the use of which is well known to those in the art.” left out

The target of the next data set is T3, β-synuclein δ2 (Homo sapiens, UniProt Q16143, A63V/F71V/H65N/INS70[…]/L66V/S64T/S72E).
T3 construct: 6xHis (cleaved yes); made in house; host or cells: E. coli
Kind of data set: Inhibition of high temperature aggregation by Congo red (β-synuclein δ2). In kind it is biochemical. The following applies: 20 μM protein, pH 6.9, 65° C., 20 hours, micromolar concentrations of Congo red. As for the experimental part: as §2
(§4) Since previous studies have shown that the aggregation of amyloidogenic proteins were to some extent inhibited by Congo red, increasing concentrations of Congo red were added in the present aggregation system. […] As is shown in FIG. 5, the monomer bands were slightly but surely stabilized by treatment with micromolar concentrations of Congo red, which is consistent with other reported studies.

The target of data set [7] is T1, NACP/α-synuclein. Kind of data set: Inhibition of high temperature aggregation by Congo red (NACP/α-synuclein). The following applies: 20 μM protein, pH 6.9, 65° C., 20 hours, micromolar concentrations of Congo red. Format: biochemical. Set-up: which encodes full length NACP/α-synuclein 140; 6xHis (cleaved yes); made in house; host or cells: E. coli. How it is done: as §2, §4

Regarding `OO` [hydrogen peroxide], on NACP/α-synuclein [1] (NACP/α-synuclein 1 μM, ferrous ion 100 μM, 1 nM-100 μM H2O2), the “aggregation of NACP/α-synuclein with hydrogen peroxide in the presence of ferrous ion” value is on record as “dose-dependent aggregation”. On NACP/α-synuclein [1] (no ferrous ion, 10-100 μM H2O2), the “aggregation of NACP/α-synuclein with hydrogen peroxide alone” value is given as “no remarkable changes”.

In the case of manganese, the “aggregation of NACP/α-synuclein by other transition metals in the presence of hydrogen peroxide” value at NACP/α-synuclein [1] (in the presence of hydrogen peroxide) is given as “failed to induce the aggregation”.

“β-synuclein: human recombinant NACP/α-synuclein-related protein with a partially incomplete NAC domain; non-amyloidogenic”: in data set [2], the “aggregation of the protein under high temperature conditions (SDS-PAGE)” value was “showed no aggregation”. Besides, the “Thioflavine-S staining of the protein” value in data set [3] is given as “negative result”. The “Thioflavine-S reactivity of ferric ion-induced aggregates” value in data set [4] is recorded as “not”. For the same molecule, the “aggregation of the protein on treatment with ferric ion” value in data set [5] was “not aggregated”.

As to `[Fe+3]` [ferric ion], the “aggregation of NACP/α-synuclein 140 induced by the ion” value in data set [6] is given as “induced aggregation”.

For the molecule `Nc1c(/N=N/c2ccc(-c3ccc(/N=N/c4cc(S(=O)(=O)O)c5ccccc5c4N)cc3)cc2)cc(S(=O)(=O)O)c2ccccc12` [Congo red], at β-synuclein δ2, the “inhibition of aggregation of β-synuclein δ2” value is “partly inhibited aggregation”. Besides, at NACP/α-synuclein [7], the “inhibition of aggregation of NACP/α-synuclein” value is given as “partly inhibited aggregation”.
